Results: PubChem BioAssay (NCI)
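Results reflect a 48-hour exposure of cells in 96-well plates to compound at five concentrations. The concentration for full growth arrest is given as TGI.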

Legend:
Assay in all cases: DTP human tumour cell line panel, 48 h
[1] = tested on: SK-MEL-28 melanoma
[2] = tested on: HCT-15 colon
[3] = tested on: OVCAR-8 ovarian
[4] = tested on: UO-31 renal
[5] = tested on: CAKI-1 renal
[6] = tested on: SNB-19 CNS
[7] = tested on: OVCAR-3 ovarian
[8] = tested on: PC-3 prostate
[9] = tested on: U251 CNS
[10] = tested on: ACHN renal
[11] = tested on: NCI-H522 lung
[12] = tested on: OVCAR-4 ovarian
[13] = tested on: A498 renal
[14] = tested on: MDA-MB-231 breast
[15] = tested on: NCI-H23 lung
[16] = tested on: SF-539 CNS
[17] = tested on: CCRF-CEM leukemia
[18] = tested on: TK-10 renal
[19] = tested on: SNB-75 CNS
[20] = tested on: KM12 colon
[21] = tested on: HOP-92 NSCLC
[22] = tested on: MDA-MB-435
[23] = tested on: RPMI-8226 leukemia
[24] = tested on: NCI-H460 lung
[25] = tested on: UACC-257 melanoma
[26] = tested on: IGROV1 ovarian
[27] = tested on: HS 578T breast
[28] = tested on: MCF7 breast
[29] = tested on: SK-OV-3 ovarian
[30] = tested on: A549 NSCLC
[31] = tested on: NCI-H226 lung
[32] = tested on: SR leukemia
[33] = tested on: HOP-62 NSCLC
[34] = tested on: DU-145 prostate
[35] = tested on: SN12C renal
[36] = tested on: 786-0 renal
[37] = tested on: SK-MEL-5 melanoma
[38] = tested on: OVCAR-5 ovarian
[39] = tested on: HCT-116 colon
[40] = tested on: SF-295 CNS
[41] = tested on: T-47D breast
[42] = tested on: SF-268 CNS
[43] = tested on: MDA-N
[44] = tested on: COLO 205 colon
[45] = tested on: SK-MEL-2 melanoma
[46] = tested on: K-562 leukemia
[47] = tested on: NCI/ADR-RES ovarian
[48] = tested on: M14 melanoma
[49] = tested on: MOLT-4 leukemia
[50] = tested on: MALME-3M melanoma
[51] = tested on: HCC-2998 colon
[52] = tested on: RXF 393 renal
[53] = tested on: UACC-62 melanoma
[54] = tested on: EKVX NSCLC
[55] = tested on: BT-549 breast
[56] = tested on: HT29 colon

Cc1c(C)c(S(=O)(=O)N(CCCCCCN)OCCCN)c(C)c2c1OC(C)(C)CC2
TGI [1]: 71.9 µM | TGI [2]: 34.7 µM | TGI [3]: 26 µM | TGI [4]: 28.6 µM | TGI [5]: > 53.1 µM | TGI [6]: 12.9 µM | TGI [7]: 7.53 µM | TGI [8]: 17.3 µM | TGI [9]: > 20.7 µM | TGI [10]: 25.6 µM | TGI [11]: 9.95 µM | TGI [12]: 8.37 µM | TGI [13]: 40.3 µM | TGI [14]: 20.1 µM | TGI [15]: 24 µM | TGI [16]: > 100 µM | TGI [17]: > 20.9 µM | TGI [18]: 32.8 µM | TGI [19]: 11 µM | TGI [20]: 3.75 µM | TGI [21]: 15.2 µM | TGI [22]: 15 µM | TGI [23]: 7.68 µM | TGI [24]: 8.45 µM | TGI [25]: 29.7 µM | TGI [26]: 4.62 µM | TGI [27]: 13 µM | TGI [28]: > 100 µM | TGI [29]: 25.2 µM | TGI [30]: 29 µM | TGI [31]: 27.5 µM | TGI [32]: > 31.6 µM | TGI [33]: 15.9 µM | TGI [34]: 64 µM | TGI [35]: > 100 µM | TGI [36]: 11.9 µM | TGI [37]: > 35.6 µM | TGI [38]: > 51.4 µM | TGI [39]: 4.63 µM | TGI [40]: 22.6 µM | TGI [41]: > 47.1 µM | TGI [42]: 22.5 µM | TGI [43]: 30.9 µM | TGI [44]: > 26.5 µM | TGI [45]: 6.13 µM | TGI [46]: > 28.3 µM | TGI [47]: 33.2 µM | TGI [48]: > 64.1 µM | TGI [49]: 10.4 µM | TGI [50]: 4.34 µM | TGI [51]: 3.8 µM | TGI [52]: 15.6 µM | TGI [53]: 30.6 µM | TGI [54]: 19.8 µM | TGI [55]: 28.6 µM | TGI [56]: 24.9 µM
